How the values were obtained:
Type in all cases: functional
Acinetobacter baumannii [1] = experiment: Potentiation of clarithromycin-induced antibacterial activity against Acinetobacter baumannii AB5075 assessed as clarithromycin MIC at 20 uM incubated for 16 hrs by broth microdilution method (reference value: […] ug/ml)
Acinetobacter baumannii [2] = experiment: Potentiation of clarithromycin-induced antibacterial activity against Acinetobacter baumannii AB5075 assessed as clarithromycin MIC at 10 uM incubated for 16 hrs by broth microdilution method (reference value: […] ug/ml)
Acinetobacter baumannii [3] = experiment: Potentiation of clarithromycin-induced antibacterial activity against Acinetobacter baumannii AB5075 assessed as clarithromycin MIC at 5 uM incubated for 16 hrs by broth microdilution method (reference value: […] ug/ml)
Acinetobacter baumannii [4] = experiment: Potentiation of clarithromycin-induced antibacterial activity against Acinetobacter baumannii AB5075 assessed as clarithromycin MIC at 7.5 uM incubated for 16 hrs by broth microdilution method (reference value: […] ug/ml)
Acinetobacter baumannii [5] = experiment: Potentiation of clarithromycin-induced antibacterial activity against Acinetobacter baumannii AB5075 assessed as fold reduction in clarithromycin MIC at 10 uM incubated for 16 hrs in presence of clarithromycin by broth microdilution method
Acinetobacter baumannii [6] = experiment: Potentiation of clarithromycin-induced antibacterial activity against Acinetobacter baumannii AB5075 assessed as fold reduction in clarithromycin MIC at 20 uM incubated for 16 hrs in presence of clarithromycin by broth microdilution method
Acinetobacter baumannii [7] = experiment: Potentiation of clarithromycin-induced antibacterial activity against Acinetobacter baumannii AB5075 assessed as fold reduction in clarithromycin MIC at 30 uM incubated for 16 hrs in presence of clarithromycin by broth microdilution method
Acinetobacter baumannii [8] = experiment: Potentiation of clarithromycin-induced antibacterial activity against Acinetobacter baumannii AB5075 assessed as fold reduction in clarithromycin MIC at 5 uM incubated for 16 hrs in presence of clarithromycin by broth microdilution method
Acinetobacter baumannii [9] = experiment: Potentiation of clarithromycin-induced antibacterial activity against Acinetobacter baumannii AB5075 assessed as fold reduction in clarithromycin MIC at 7.5 uM incubated for 16 hrs in presence of clarithromycin broth microdilution method
Acinetobacter baumannii [10] = experiment: Potentiation of clarithromycin-induced antibacterial activity against Acinetobacter baumannii 3560 assessed as fold reduction in clarithromycin MIC at 10 uM incubated for 16 hrs by broth microdilution method
Acinetobacter baumannii [11] = experiment: Potentiation of clarithromycin-induced antibacterial activity against Acinetobacter baumannii AB5075 assessed as clarithromycin MIC at […] incubated for 16 hrs by broth microdilution method (reference value: […] ug/ml); conditions: dose 30 µM
Acinetobacter baumannii [12] = experiment: Antibacterial activity against Acinetobacter baumannii AB5075 assessed as reduction in microbial growth incubated for 16 hrs by broth microdilution method
Acinetobacter baumannii [13] = experiment: Potentiation of clarithromycin-induced antibacterial activity against Acinetobacter baumannii 3785 assessed as fold reduction in clarithromycin MIC at 10 uM incubated for 16 hrs by broth microdilution method
Acinetobacter baumannii [14] = experiment: Potentiation of clarithromycin-induced antibacterial activity against Acinetobacter baumannii 3806 assessed as fold reduction in clarithromycin MIC at 10 uM incubated for 16 hrs by broth microdilution method
Acinetobacter baumannii [15] = experiment: Potentiation of clarithromycin-induced antibacterial activity against Acinetobacter baumannii 3927 assessed as fold reduction in clarithromycin MIC at 10 uM incubated for 16 hrs by broth microdilution method
Acinetobacter baumannii [16] = experiment: Potentiation of clarithromycin-induced antibacterial activity against Acinetobacter baumannii 4025 assessed as fold reduction in clarithromycin MIC at 10 uM incubated for 16 hrs by broth microdilution method
Acinetobacter baumannii [17] = experiment: Potentiation of clarithromycin-induced antibacterial activity against Acinetobacter baumannii 4026 assessed as fold reduction in clarithromycin MIC at 10 uM incubated for 16 hrs by broth microdilution method
Acinetobacter baumannii [18] = experiment: Potentiation of clarithromycin-induced antibacterial activity against Acinetobacter baumannii 4027 assessed as fold reduction in clarithromycin MIC at 10 uM incubated for 16 hrs by broth microdilution method
Acinetobacter baumannii [19] = experiment: Potentiation of clarithromycin-induced antibacterial activity against Acinetobacter baumannii 4052 assessed as fold reduction in clarithromycin MIC at 10 uM incubated for 16 hrs by broth microdilution method
Acinetobacter baumannii [20] = experiment: Potentiation of clarithromycin-induced antibacterial activity against Acinetobacter baumannii 4269 assessed as fold reduction in clarithromycin MIC at 10 uM incubated for 16 hrs by broth microdilution method
Acinetobacter baumannii [21] = experiment: Potentiation of clarithromycin-induced antibacterial activity against Acinetobacter baumannii 4448 assessed as fold reduction in clarithromycin MIC at 10 uM incubated for 16 hrs by broth microdilution method
Acinetobacter baumannii [22] = experiment: Potentiation of clarithromycin-induced antibacterial activity against Acinetobacter baumannii 4456 assessed as fold reduction in clarithromycin MIC at 10 uM incubated for 16 hrs by broth microdilution method
Acinetobacter baumannii [23] = experiment: Potentiation of clarithromycin-induced antibacterial activity against Acinetobacter baumannii 4490 assessed as fold reduction in clarithromycin MIC at 10 uM incubated for 16 hrs by broth microdilution method
Acinetobacter baumannii [24] = experiment: Potentiation of clarithromycin-induced antibacterial activity against Acinetobacter baumannii 4498 assessed as fold reduction in clarithromycin MIC at 10 uM incubated for 16 hrs by broth microdilution metho
Acinetobacter baumannii [25] = experiment: Potentiation of clarithromycin-induced antibacterial activity against Acinetobacter baumannii 4795 assessed as fold reduction in clarithromycin MIC at 10 uM incubated for 16 hrs by broth microdilution method
Acinetobacter baumannii [26] = experiment: Potentiation of clarithromycin-induced antibacterial activity against Acinetobacter baumannii 4857 assessed as fold reduction in clarithromycin MIC at 10 uM incubated for 16 hrs by broth microdilution method
Acinetobacter baumannii [27] = experiment: Potentiation of clarithromycin-induced antibacterial activity against Acinetobacter baumannii 4878 assessed as fold reduction in clarithromycin MIC at 10 uM incubated for 16 hrs by broth microdilution method
Acinetobacter baumannii [28] = experiment: Potentiation of clarithromycin-induced antibacterial activity against Acinetobacter baumannii 4957 assessed as fold reduction in clarithromycin MIC at 10 uM incubated for 16 hrs by broth microdilution method
Acinetobacter baumannii [29] = experiment: Potentiation of clarithromycin-induced antibacterial activity against Acinetobacter baumannii 4991 assessed as fold reduction in clarithromycin MIC at 10 uM incubated for 16 hrs by broth microdilution method
Acinetobacter baumannii [30] = experiment: Potentiation of clarithromycin-induced antibacterial activity against Acinetobacter baumannii 5001 assessed as fold reduction in clarithromycin MIC at 10 uM incubated for 16 hrs by broth microdilution method
Acinetobacter baumannii [31] = experiment: Potentiation of clarithromycin-induced antibacterial activity against Acinetobacter baumannii 5197 assessed as fold reduction in clarithromycin MIC at 10 uM incubated for 16 hrs by broth microdilution method
Acinetobacter baumannii [32] = experiment: Potentiation of clarithromycin-induced antibacterial activity against Acinetobacter baumannii 5256 assessed as fold reduction in clarithromycin MIC at 10 uM incubated for 16 hrs by broth microdilution method
Acinetobacter baumannii [33] = experiment: Potentiation of clarithromycin-induced antibacterial activity against Acinetobacter baumannii 5711 assessed as fold reduction in clarithromycin MIC at 10 uM incubated for 16 hrs by broth microdilution method
Acinetobacter baumannii [34] = experiment: Potentiation of clarithromycin-induced antibacterial activity against Acinetobacter baumannii 8967 assessed as fold reduction in clarithromycin MIC at 10 uM incubated for 16 hrs by broth microdilution method
Acinetobacter baumannii [35] = experiment: Antibacterial activity against Acinetobacter baumannii AB5075 assessed as reduction in microbial growth after 2 days by broth microdilution method; conditions: AB5075, 48 h, time 2 day
Acinetobacter baumannii [36] = experiment: Antibacterial activity against Acinetobacter baumannii AB5075 assessed as reduction in microbial growth after 6 days by broth microdilution method; conditions: AB5075, 144 h, time 6 day
Acinetobacter baumannii [37] = experiment: Antibacterial activity against Acinetobacter baumannii AB5075 assessed as reduction in microbial growth after 9 days by broth microdilution method; conditions: AB5075, 216 h, time 9 day
Acinetobacter baumannii [38] = experiment: Antibacterial activity against Acinetobacter baumannii AB5075 assessed as reduction in microbial growth by CLSI based microdilution method
Acinetobacter baumannii [39] = experiment: Potentiation of clarithromycin-induced antibacterial activity against Acinetobacter baumannii AB5075 assessed as clarithromycin MIC at 10 uM by CLSI based microdilution method (reference value: […] ug/ml)
Acinetobacter baumannii [40] = experiment: Potentiation of clarithromycin-induced antibacterial activity against Acinetobacter baumannii AB5075 assessed as clarithromycin MIC at 30 uM by CLSI based microdilution method (reference value: […] ug/ml)
Acinetobacter baumannii [41] = experiment: Potentiation of clarithromycin-induced antibacterial activity against Acinetobacter baumannii AB5075 assessed as assessed as fold reduction in clarithromycin MIC at 10 uM by CLSI based microdilution method
Acinetobacter baumannii [42] = experiment: Potentiation of clarithromycin-induced antibacterial activity against Acinetobacter baumannii AB5075 assessed as fold reduction in clarithromycin MIC at 30 uM by broth microdilution method (reference value: 512 ug/ml)
Acinetobacter baumannii [43] = experiment: Potentiation of clarithromycin-induced antibacterial activity against Acinetobacter baumannii AB5075 assessed as clarithromycin MIC at 30 uM after 2 to 9 days by broth microdilution method (reference value: […] ug/ml); conditions: time day 2-9
Acinetobacter baumannii [44] = experiment: Potentiation of clarithromycin-induced antibacterial activity against Acinetobacter baumannii AB5075 assessed as fold reduction in clarithromycin MIC at 30 uM after 2 to 9 days by broth microdilution method; conditions: time day 2-9
Acinetobacter baumannii [45] = experiment: Potentiation of clarithromycin-induced antibacterial activity against Acinetobacter baumannii AB5075 assessed as assessed as fold reduction in clarithromycin MIC at 30 uM by CLSI based microdilution method

Cl.Nc1nc(-c2ccc(NC(=O)c3ccc(Cl)c(Cl)c3)cc2F)c[nH]1
MIC (Acinetobacter baumannii [1]): 0.5 µg/mL
MIC (Acinetobacter baumannii [2]): 0.5 µg/mL
MIC (Acinetobacter baumannii [3]): 8 µg/mL
MIC (Acinetobacter baumannii [4]): 1 µg/mL
fold change (FC) (Acinetobacter baumannii [5]): 64
fold change (FC) (Acinetobacter baumannii [6]): 64
fold change (FC) (Acinetobacter baumannii [7]): 64
fold change (FC) (Acinetobacter baumannii [8]): 4
fold change (FC) (Acinetobacter baumannii [9]): 32
fold change (FC) (Acinetobacter baumannii [10]): 8
MIC (Acinetobacter baumannii [11]): 0.5 µg/mL
MIC (Acinetobacter baumannii [12]): > 200 µM
fold change (FC) (Acinetobacter baumannii [13]): 8
fold change (FC) (Acinetobacter baumannii [14]): 8
fold change (FC) (Acinetobacter baumannii [15]): 8
fold change (FC) (Acinetobacter baumannii [16]): 8
fold change (FC) (Acinetobacter baumannii [17]): 8
fold change (FC) (Acinetobacter baumannii [18]): 8
fold change (FC) (Acinetobacter baumannii [19]): 8
fold change (FC) (Acinetobacter baumannii [20]): 8
fold change (FC) (Acinetobacter baumannii [21]): 8
fold change (FC) (Acinetobacter baumannii [22]): 8
fold change (FC) (Acinetobacter baumannii [23]): 8
fold change (FC) (Acinetobacter baumannii [24]): 8
fold change (FC) (Acinetobacter baumannii [25]): 8
fold change (FC) (Acinetobacter baumannii [26]): 8
fold change (FC) (Acinetobacter baumannii [27]): 8
fold change (FC) (Acinetobacter baumannii [28]): 8
fold change (FC) (Acinetobacter baumannii [29]): 8
fold change (FC) (Acinetobacter baumannii [30]): 8
fold change (FC) (Acinetobacter baumannii [31]): 8
fold change (FC) (Acinetobacter baumannii [32]): 8
fold change (FC) (Acinetobacter baumannii [33]): 8
fold change (FC) (Acinetobacter baumannii [34]): 8

CC[C@H]1OC(=O)[C@H](C)[C@@H](O[C@H]2C[C@@](C)(OC)[C@@H](O)[C@H](C)O2)[C@H](C)[C@@H](O[C@@H]2O[C@H](C)C[C@H](N(C)C)[C@H]2O)[C@](C)(OC)C[C@@H](C)C(=O)[C@H](C)[C@@H](O)[C@]1(C)O [CLARITHROMYCIN]
MIC (Acinetobacter baumannii [35]): ≥ 128 µg/mL
MIC (Acinetobacter baumannii [36]): 512 µg/mL
MIC (Acinetobacter baumannii [37]): 512 µg/mL

Cl.Nc1nc(-c2ccc(NC(=O)c3cc(Cl)cc(Cl)c3)cc2)c[nH]1
MIC (Acinetobacter baumannii [38]): 100 µM
MIC (Acinetobacter baumannii [39]): 2 µg/mL
MIC (Acinetobacter baumannii [40]): 0.25 µg/mL
fold change (FC) (Acinetobacter baumannii [41]): 16
MIC (Acinetobacter baumannii [42]): 2 µg/mL
MIC (Acinetobacter baumannii [43]): 0.25 µg/mL
fold change (FC) (Acinetobacter baumannii [44]): 128

Nc1ncc(-c2ccc(NC(=O)c3cc(Br)cc(Br)c3)cc2)[nH]1
MIC (Acinetobacter baumannii [38]): 100 µM
MIC (Acinetobacter baumannii [39]): 2 µg/mL
MIC (Acinetobacter baumannii [40]): 0.25 µg/mL
fold change (FC) (Acinetobacter baumannii [45]): 128
fold change (FC) (Acinetobacter baumannii [41]): 16

From ChEMBL document CHEMBL4725412, “Augmenting the Activity of Macrolide Adjuvants against Acinetobacter baumannii” (2020)
